Test results taken from patent US8299093B2, “Small molecule inhibitors of retroviral assembly and maturation” (New York Blood Center, Inc., priority 2008, dated 2012).
Read-outs that look alike come from different tables or passages of the source.

Experiments:
HIV-1 = experiment: Inhibition of HIV-1 infectivity (p24 ELISA) in MT-2 cells, laboratory-adapted HIV-1 strains; type: cell-based; conditions: Human immunodeficiency virus 1, MT2, 96 h, MT-2 cells, p24 ELISA day 4
Method: AZT was used as a positive control in the infectivity assays. In brief, 1×10^4 MT-2 cells (lymphocytes) were infected with HIV-1 at 100 TCID50 (50% tissue culture infective dose, 0.01 MOI [multiplicity of infection]) in 200 μL RPMI 1640 medium containing 10% FBS in the presence or absence of small molecules at graded concentrations overnight. The culture supernatants were then removed and fresh media containing freshly prepared test compounds were added. On the fourth day post-infection, 100 μL of culture supernatants were collected from each well, mixed with equal volume of 5% TRITON X-100® and tested for p24 antigen by ELISA®.

[1] = XTT cytotoxicity assay in MT-2 cells; type: cell-based; conditions: human, cell type not given
Method: Briefly, for MT-2 cells, 100 μL of small molecule at graded concentrations was added to an equal volume of cells (5×10^4 cells/ml) in 96-well plates followed by incubation at 37° C. for 4 days, which ran parallel to the neutralization assay in MT-2 (except medium was added instead of virus). In the case of PBMC, 2.5×10^5 cells/mL were used and the cytotoxicity was measured after 7 days. After addition of XTT (PolySciences, Inc.), the soluble intracellular formazan was quantitated calorimetrically at 450 nm 4 hours later with a reference at 620 nm. The CC50 values were calculated.

[2] = read-out: IC50 (concentration that provides 50% inhibition of HIV-1 p24), Table 1, formula I
[3] = Table 1, formula I, read-out: CC50 (concentration that causes 50% cytotoxicity)
[4] = Table 2, formula II, read-out: CC50

SMILES: COc1ccc2cc(CN(Cc3ccc4c(c3)OCO4)C(=S)Nc3ccc(C)cc3)c(=O)[nH]c2c1 [NYAD-S2]
- IC50 (HIV-1; [2]): > 10 µM
- CC50 [1, 3]: > 10 µM

SMILES: CCc1ccc2[nH]c(=O)c(CN(Cc3cccnc3)C(=S)NCC3CCCO3)cc2c1 (stereo not shown) [NYAD-S3]
- IC50 (HIV-1; [2]): > 10 µM
- CC50 [1, 3]: > 10 µM

SMILES: Cc1cc(C)c2[nH]c(=O)c(CN(CCO)C(=S)Nc3ccc(F)cc3)cc2c1 [NYAD-S4]
- IC50 (HIV-1; [2]): > 10 µM
- CC50 [1, 3]: > 10 µM

SMILES: COc1ccc2[nH]c(=O)c(CN(Cc3cccnc3)C(=S)Nc3ccc(F)cc3)cc2c1 [NYAD-S5]
- IC50 (HIV-1; [2]): > 10 µM
- CC50 [1, 3]: > 10 µM

SMILES: Cc1ccc2[nH]c(=O)c(CN(Cc3ccco3)S(=O)(=O)c3ccc(Cl)cc3)cc2c1 [NYAD-S6-4]
- IC50 (HIV-1; [2]): < 10 µM
- CC50 [1, 3]: > 10 µM

SMILES: Cc1ccc2[nH]c(=O)c(CN(Cc3ccco3)C(=O)c3ccc(Cl)c(Cl)c3)cc2c1 [NYAD-S6-6]
- IC50 (HIV-1; [2]): < 10 µM
- CC50 [1, 3]: > 10 µM

SMILES: Cc1ccc2[nH]c(=O)c(CN(Cc3ccco3)C(=O)c3ccc(Cl)c(N4CCCCC4)c3)cc2c1 [NYAD-S6-8]
- IC50 (HIV-1; [2]): < 10 µM
- CC50 [1, 3]: > 10 µM

SMILES: Cc1ccc2[nH]c(=O)c(CN(Cc3ccco3)C(=O)c3ccc(F)c(Cl)c3)cc2c1 [NYAD-S6-10]
- IC50 (HIV-1; [2]): < 10 µM
- CC50 [1, 3]: > 10 µM

SMILES: Cc1ccc2[nH]c(=O)c(CN(Cc3ccco3)C(=O)c3ccc(F)c(C)c3)cc2c1 [NYAD-S6-19]
- IC50 (HIV-1; [2]): < 10 µM
- CC50 [1, 3]: > 10 µM

SMILES: Cc1ccc2[nH]c(=O)c(CN(Cc3ccco3)C(=O)c3ccc(F)c(F)c3)cc2c1 [NYAD-S6-21]
- IC50 (HIV-1; [2]): < 10 µM
- CC50 [1, 3]: > 10 µM

SMILES: Cc1cc(=O)n2c3ccccc3n(CC(O)CN3CCCC3)c2c1C#N (stereo not shown) [NYAD-S9]
- IC50 (HIV-1; Table 2, formula II): > 10 µM
- CC50 [1, 4]: > 10 µM

SMILES: Cc1cc(=O)n2c3ccccc3n(CC(O)CNc3ccccc3)c2c1C#N (stereo not shown) [NYAD-S10]
- IC50 (HIV-1; Table 2, formula II): > 10 µM
- CC50 [1, 4]: > 10 µM

SMILES: Cc1cc(=O)n2c3ccccc3n(CC(O)CN3CCCCC3)c2c1C#N (stereo not shown) [NYAD-S12]
- IC50 (HIV-1; Table 2, formula II): > 10 µM
- CC50 [1, 4]: > 10 µM

SMILES: Cc1cc(=O)n2c3ccccc3n(CC(O)CN3CCOCC3)c2c1C#N (stereo not shown) [NYAD-S13]
- IC50 (HIV-1; Table 2, formula II): > 10 µM
- CC50 [1, 4]: > 10 µM

SMILES: Cc1ccccc1N1CCN(CC(O)Cn2c3ccccc3n3c(=O)cc(C)c(C#N)c23)CC1 (stereo not shown) [NYAD-S14]
- IC50 (HIV-1; Table 2, formula II): > 10 µM
- CC50 [1, 4]: > 10 µM

SMILES: Cc1cc(=O)n2c3ccccc3n(CC(O)Cn3ccnc3)c2c1C#N (stereo not shown) [NYAD-S15]
- IC50 (HIV-1; Table 2, formula II): > 10 µM
- CC50 [1, 4]: > 10 µM

SMILES: Cc1cc(=O)n2c3ccccc3n(CC(O)CN3CCN(CCOc4ccc(Cl)cc4)CC3)c2c1C#N (stereo not shown) [NYAD-S16]
- IC50 (HIV-1; Table 2, formula II): < 10 µM
- CC50 [1, 4]: > 10 µM

SMILES: Cc1cc(=O)n2c3ccccc3n(CC(O)CN3CCN(CCO)CC3)c2c1C#N (stereo not shown) [NYAD-S18]
- IC50 (HIV-1; Table 2, formula II): > 10 µM
- CC50 [1, 4]: > 10 µM

SMILES: COc1ccc(CCNCC(O)Cn2c3ccccc3n3c(=O)cc(C)c(C#N)c23)cc1OC (stereo not shown) [NYAD-S19]
- IC50 (HIV-1; Table 2, formula II): > 10 µM
- CC50 [1, 4]: > 10 µM

SMILES: CCC(=O)N(Cc1ccco1)Cc1cc2cc(C)ccc2[nH]c1=O [NYAD-S20]
- IC50 (HIV-1; [2]): > 10 µM
- CC50 [1, 3]: > 10 µM

SMILES: Cc1cccc2cc(CN(Cc3ccco3)C(=O)c3ccccc3)c(=O)[nH]c12 [NYAD-S21]
- IC50 (HIV-1; [2]): < 10 µM
- CC50 [1, 3]: > 10 µM

SMILES: Cc1cccc2cc(CN(Cc3ccccc3)C(=O)c3ccco3)c(=O)[nH]c12 [NYAD-S22]
- IC50 (HIV-1; [2]): > 10 µM
- CC50 [1, 3]: > 10 µM

SMILES: Cc1cccc2cc(CN(Cc3ccco3)C(=O)c3ccc(C(C)(C)C)cc3)c(=O)[nH]c12 [NYAD-S23]
- IC50 (HIV-1; [2]): > 10 µM
- CC50 [1, 3]: > 10 µM

SMILES: CCOc1ccc(C(=O)N(Cc2ccco2)Cc2cc3ccc(C)cc3[nH]c2=O)cc1 [NYAD-S24]
- IC50 (HIV-1; [2]): > 10 µM
- CC50 [1, 3]: > 10 µM

SMILES: Cc1cccc2cc(CN(Cc3ccco3)C(=O)c3cccs3)c(O)nc12 [NYAD-S25]
- IC50 (HIV-1; [2]): > 10 µM
- CC50 [1, 3]: > 10 µM

SMILES: Cc1cccc(C(=O)N(Cc2ccco2)Cc2cc3cccc(C)c3[nH]c2=O)c1 [NYAD-S26]
- IC50 (HIV-1; [2]): > 10 µM
- CC50 [1, 3]: > 10 µM

SMILES: Cc1ccc2cc(CN(Cc3ccco3)C(=O)c3ccccc3)c(=O)[nH]c2c1 [NYAD-S27]
- IC50 (HIV-1; [2]): > 10 µM
- CC50 [1, 3]: > 10 µM

SMILES: Cc1ccc2cc(CN(Cc3ccco3)C(=O)c3ccc(F)cc3)c(=O)[nH]c2c1 [NYAD-S28]
- IC50 (HIV-1; [2]): > 10 µM
- CC50 [1, 3]: > 10 µM

SMILES: COc1ccccc1C(=O)N(Cc1ccco1)Cc1cc2ccc(C)cc2[nH]c1=O [NYAD-S29]
- IC50 (HIV-1; [2]): > 10 µM
- CC50 [1, 3]: > 10 µM

SMILES: Cc1cccc2cc(CN(Cc3ccco3)C(=O)c3cccnc3)c(=O)[nH]c12 [NYAD-S30]
- IC50 (HIV-1; [2]): > 10 µM
- CC50 [1, 3]: > 10 µM

SMILES: Cc1ccccc1C(=O)N(Cc1ccco1)Cc1cc2cccc(C)c2[nH]c1=O [NYAD-S31]
- IC50 (HIV-1; [2]): > 10 µM
- CC50 [1, 3]: > 10 µM

SMILES: Cc1cccc2cc(CN(Cc3ccco3)C(=O)c3ccccc3F)c(=O)[nH]c12 [NYAD-S32]
- IC50 (HIV-1; [2]): > 10 µM
- CC50 [1, 3]: > 10 µM
